The values below come from publication PMC5154332 (Neuropharmacology, 2017).

Structures are written as SMILES. Several values for one entry are separate records, joined by “and”; a condition that tells them apart may be missing. Identical values can stand only once. Like-named read-outs stand apart in the source and are kept apart here.

Series [1] has as its system rat model of myotonia. Put plainly: In vivo antimyotonic activity, time of righting reflex.
Series [2] concerns the target hNav1.4 channels (Homo sapiens, UniProt P35499). As to the kind of experiment: cell-based.
The target of series [3] is hERG potassium channel (Homo sapiens, UniProt Q12809). Put plainly: Patch-clamp of hERG potassium currents in transfected tsA201 cells. The class given is cell-based. For orientation: Patch clamp records ionic current or voltage across a cell membrane.
hERG potassium channel, sequence (Q12809 whole entry): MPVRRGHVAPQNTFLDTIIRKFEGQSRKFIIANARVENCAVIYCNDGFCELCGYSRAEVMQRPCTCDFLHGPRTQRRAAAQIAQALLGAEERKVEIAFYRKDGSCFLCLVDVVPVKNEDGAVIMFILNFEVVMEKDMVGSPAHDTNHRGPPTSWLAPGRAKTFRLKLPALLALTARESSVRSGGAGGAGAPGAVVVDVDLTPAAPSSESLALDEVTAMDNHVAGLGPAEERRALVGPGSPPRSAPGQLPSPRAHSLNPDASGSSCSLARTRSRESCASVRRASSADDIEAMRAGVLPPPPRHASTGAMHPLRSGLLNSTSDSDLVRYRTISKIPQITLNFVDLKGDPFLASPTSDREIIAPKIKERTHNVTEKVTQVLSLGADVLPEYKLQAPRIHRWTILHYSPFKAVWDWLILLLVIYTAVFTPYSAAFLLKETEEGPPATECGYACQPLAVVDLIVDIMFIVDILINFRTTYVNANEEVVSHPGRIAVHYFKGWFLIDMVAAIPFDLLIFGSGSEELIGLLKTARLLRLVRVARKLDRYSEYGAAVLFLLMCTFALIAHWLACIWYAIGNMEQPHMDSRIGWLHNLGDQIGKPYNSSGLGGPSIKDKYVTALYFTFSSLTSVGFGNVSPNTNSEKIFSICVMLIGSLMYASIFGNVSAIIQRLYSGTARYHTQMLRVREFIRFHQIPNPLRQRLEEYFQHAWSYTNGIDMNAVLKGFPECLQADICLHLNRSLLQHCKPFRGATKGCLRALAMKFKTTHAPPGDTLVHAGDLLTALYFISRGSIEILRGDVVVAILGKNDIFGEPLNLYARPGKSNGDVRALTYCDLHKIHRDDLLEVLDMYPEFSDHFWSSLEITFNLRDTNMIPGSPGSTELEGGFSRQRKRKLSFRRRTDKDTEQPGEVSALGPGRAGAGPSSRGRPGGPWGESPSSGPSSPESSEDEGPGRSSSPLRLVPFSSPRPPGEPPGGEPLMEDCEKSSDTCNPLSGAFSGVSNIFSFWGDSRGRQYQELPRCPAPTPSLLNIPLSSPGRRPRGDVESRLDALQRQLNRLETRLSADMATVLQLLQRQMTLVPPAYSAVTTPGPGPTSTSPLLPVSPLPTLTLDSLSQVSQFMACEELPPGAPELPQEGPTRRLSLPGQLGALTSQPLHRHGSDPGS
Series [4] concerns the target hNav1.4 - F1586C (Homo sapiens, UniProt P35499, F1586C). The note with it: ref Desaphy et al., 2012, cited from earlier work.
Series [5] deals with hNav1.4 – WT (Homo sapiens, UniProt P35499). The note with it: cited from earlier work; for 0.1-to-10 Hz ratio: ratio of IC50 values.
hNav1.4 – WT, sequence (P35499 whole entry): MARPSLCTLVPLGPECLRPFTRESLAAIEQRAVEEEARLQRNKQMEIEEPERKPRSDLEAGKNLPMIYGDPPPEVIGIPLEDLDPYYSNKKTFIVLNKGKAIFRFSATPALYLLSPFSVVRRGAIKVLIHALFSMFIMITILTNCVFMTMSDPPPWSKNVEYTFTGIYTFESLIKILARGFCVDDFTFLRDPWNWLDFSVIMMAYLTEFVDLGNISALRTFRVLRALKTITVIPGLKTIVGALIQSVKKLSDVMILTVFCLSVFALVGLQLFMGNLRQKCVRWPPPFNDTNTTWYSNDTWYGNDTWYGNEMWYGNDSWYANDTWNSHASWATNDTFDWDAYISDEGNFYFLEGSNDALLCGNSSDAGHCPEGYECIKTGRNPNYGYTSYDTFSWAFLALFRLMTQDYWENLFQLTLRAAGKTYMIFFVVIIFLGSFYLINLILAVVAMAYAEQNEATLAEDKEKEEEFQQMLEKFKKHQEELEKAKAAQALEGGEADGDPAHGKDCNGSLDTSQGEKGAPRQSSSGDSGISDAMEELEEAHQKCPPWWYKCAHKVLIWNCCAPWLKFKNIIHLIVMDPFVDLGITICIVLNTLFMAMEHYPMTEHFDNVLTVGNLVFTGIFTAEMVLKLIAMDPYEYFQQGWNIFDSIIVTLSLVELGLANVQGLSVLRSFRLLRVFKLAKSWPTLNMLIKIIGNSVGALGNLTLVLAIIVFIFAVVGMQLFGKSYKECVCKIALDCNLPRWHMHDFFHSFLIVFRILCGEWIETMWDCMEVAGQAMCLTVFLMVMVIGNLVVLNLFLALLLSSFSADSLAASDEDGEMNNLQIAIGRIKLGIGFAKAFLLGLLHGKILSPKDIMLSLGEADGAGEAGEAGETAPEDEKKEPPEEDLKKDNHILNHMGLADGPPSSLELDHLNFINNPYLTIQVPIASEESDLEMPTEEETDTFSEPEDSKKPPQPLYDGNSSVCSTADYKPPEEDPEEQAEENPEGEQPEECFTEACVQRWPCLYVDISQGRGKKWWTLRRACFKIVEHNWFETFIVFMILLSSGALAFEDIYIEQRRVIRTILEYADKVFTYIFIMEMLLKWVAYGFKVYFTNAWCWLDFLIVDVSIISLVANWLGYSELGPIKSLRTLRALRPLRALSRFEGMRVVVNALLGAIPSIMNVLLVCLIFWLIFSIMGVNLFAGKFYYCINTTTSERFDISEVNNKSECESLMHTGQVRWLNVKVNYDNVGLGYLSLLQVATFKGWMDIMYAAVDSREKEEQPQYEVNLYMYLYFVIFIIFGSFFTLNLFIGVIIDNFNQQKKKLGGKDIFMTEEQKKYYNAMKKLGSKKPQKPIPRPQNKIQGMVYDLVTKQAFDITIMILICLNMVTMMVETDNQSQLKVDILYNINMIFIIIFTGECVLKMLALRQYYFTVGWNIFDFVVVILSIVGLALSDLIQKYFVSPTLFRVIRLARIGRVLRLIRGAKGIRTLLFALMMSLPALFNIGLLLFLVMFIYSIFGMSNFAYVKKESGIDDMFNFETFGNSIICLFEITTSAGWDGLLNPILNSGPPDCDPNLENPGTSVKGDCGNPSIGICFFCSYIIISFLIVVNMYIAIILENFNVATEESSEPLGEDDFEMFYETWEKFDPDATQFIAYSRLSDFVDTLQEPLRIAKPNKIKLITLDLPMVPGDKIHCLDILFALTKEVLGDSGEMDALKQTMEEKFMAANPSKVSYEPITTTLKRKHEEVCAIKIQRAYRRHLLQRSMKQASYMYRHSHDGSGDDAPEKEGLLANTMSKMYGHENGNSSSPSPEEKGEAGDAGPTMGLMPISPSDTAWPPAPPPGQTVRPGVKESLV
For series [6], the system named is HeLa. The note with it: 100 μM; ref Ghelardini et al., 2010; cited from earlier work.
Series [7] deals with murine C2C12 skeletal muscle cells. As to the kind of experiment: In vitro cytotoxicity, CCK-8 cell viability. The class given is cell-based. The note with it: C2C12, 6 h, from 100 μM to 1 mM.
Series [8] relates to MRC-5. The note with it: 100 μM; ref Ghelardini et al., 2010; cited from earlier work.
For series [9] the following is noted: humans; ref Lalka et al., 1976; cited from earlier work.
Setting [10] is: current at end of first voltage step.

hNav1.4 channels, sequence (P35499 whole entry): as above
hNav1.4 - F1586C, sequence (P35499 whole entry F1586C): as the sequence (P35499 whole entry) above, with F1586C counted along it

Turning to `Cc1cccc(C)c1OCC(C)N` (stereo not drawn) [Mexiletine, mexiletine], the “In vivo Min” value in [1] (minimal TRR value of the dose-response fit) was determined as 18.0 ± 7.3%. The “maximal TRR reduction” value in series [1] (oral, from dose-response fit) is on record as roughly 80%. Besides, the “In vitro nH” value in series [2] worked out at 1.2 ± 0.2. Besides, the IC50 – broadly, the concentration that inhibits the measured activity by half – in series [2] (In vitro IC50) is 17 µM and 16.9 µM; in series [3] (hERG IC50, tail currents at −50 mV after test depolarization at −10 mV), 43 µM; in series [5] (read-out: Phasic block (10 Hz) IC50, 10 Hz, ref Desaphy et al., 2012), 24 ± 2 µM. Further, the “concentration at which inhibition of hERG currents was complete” value in series [3] (setting [10]) is 1000 µM. Further, in series [3] (setting [10]), the “concentrations at which inhibition of hERG currents was observed” value is given as “greater than 1 μM”. Besides, the “ratio between hERG and hNav1.4 (myotonia-like condition) IC50” value in [3] (hERG IC50 versus hNav1.4 IC50 at 50 Hz) is on record as 2.5 fold. Besides, in [3] (tail currents, Hill slope factor), the “hERG nH” value was 0.79 ± 0.07. Also, the “Tonic block (0.1 Hz) nH” value in series [4] (0.1 Hz) was 1.1 ± 0.1; in series [5] (ref Desaphy et al., 2012), 0.9 ± 0.1. For the same compound, the “Phasic block (10 Hz) nH” value in series [4] (10 Hz) was 1.0 ± 0.2; in series [5] (ref Desaphy et al., 2012), 0.8 ± 0.1. The “0.1-to-10 Hz ratio” value in series [4] (ratio of IC50 values) is reported as 1.2; in [5] (ref Desaphy et al., 2012), 10.3.
In the case of `Cc1cccc(C)c1NC(=O)C(C)N` (stereo not drawn) [Tocainide, tocainide], in [6], the HeLa cell viability entry is reported as “reduction”. Further, the “reduction of cell viability” value in [7] is “about 20%”. Moreover, the MRC-5 cell viability result in series [8] is “reduction”. Moreover, in [9], the oral bioavailability is reported as roughly 100% and the plasma protein bound is recorded as roughly 50%. In addition, in [5] (ref Ghelardini et al., 2010), the “Tonic block (0.1 Hz) nH” value is on record as 1.0 ± 0.1, the “Phasic block (10 Hz) nH” value is given as 1.1 ± 0.2 and the “0.1-to-10 Hz ratio” value is recorded as 3.8.
